ChEMBL document CHEMBL1201862, “PubChem BioAssay data set” (2004)
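96-well plates; 48 h exposure; 5 concentrations. Endpoints by linear interpolation between flanking doses. Not reached: highest tested concentration assigned. GI50 marks 50% less growth.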 The source made the active and inactive calls. No stated cut-off is given here; in the data, active = GI50 up to about 1.1 µM and inactive = higher.

How the values were obtained:
Assay in all cases: NCI anticancer screen, dose series, 48 h
K562 = system: K562
NCI-H460 = system: NCI-H460
SF-268 = system: SF-268
MDA-N = system: MDA-N
KM12 = system: KM12
Malme-3M = system: Malme-3M
TK-10 = system: TK-10
PC-3 = system: PC-3
M14 = system: M14
SNB-75 = system: SNB-75
MCF7 = system: MCF7
UO-31 = system: UO-31
SK-OV-3 = system: SK-OV-3
A549 = system: A549
UACC-257 = system: UACC-257
A498 = system: A498
SF-539 = system: SF-539
DU-145 = system: DU-145
U-251 = system: U-251
SK-MEL-2 = system: SK-MEL-2

Measured: GI50

CC1=NC(=Cc2ccc(O)cc2)C(=O)N1n1c(-c2ccccc2)nc2ccccc2c1=O
inactive: K562 > 100 µM | NCI-H460 > 100 µM | SF-268 > 100 µM | MDA-N > 100 µM | KM12 > 100 µM | Malme-3M > 100 µM | TK-10 > 100 µM | PC-3 > 100 µM | M14 > 100 µM | SNB-75 > 100 µM | MCF7 > 100 µM | UO-31 > 100 µM | SK-OV-3 > 100 µM | A549 > 100 µM | UACC-257 > 100 µM | A498 > 100 µM | SF-539 > 100 µM | DU-145 > 100 µM

CN(C)C(Cc1c[nH]cn1)C(=O)N1CCCC1C(N)=O (stereo not drawn)
inactive: K562 > 100 µM | NCI-H460 > 100 µM | SF-268 > 100 µM | MDA-N > 100 µM | KM12 > 100 µM | Malme-3M > 100 µM | TK-10 > 100 µM | PC-3 > 100 µM | U-251 > 100 µM | M14 > 100 µM | SNB-75 > 100 µM | MCF7 > 100 µM | UO-31 > 100 µM | SK-OV-3 > 100 µM | A549 > 100 µM | A498 22.9 µM | DU-145 > 100 µM

C=Cc1c(C)c(O)cc2c1-c1ccc(O)c(C)c1CC2
inactive: NCI-H460 20.1 µM | SF-268 18.5 µM | SK-MEL-2 17.1 µM | MDA-N 13.6 µM | KM12 14.3 µM | Malme-3M 19.6 µM | TK-10 13.1 µM | PC-3 > 10 µM | U-251 14.3 µM | M14 20.9 µM | MCF7 20.9 µM | UO-31 14.8 µM | SK-OV-3 17 µM | A549 19 µM | UACC-257 14.8 µM | A498 11.6 µM | SF-539 13.5 µM | DU-145 14.1 µM

O=C(Nn1c(-c2ccccc2)nc2ccccc2c1=O)c1ccc([N+](=O)[O-])cc1
inactive: K562 > 100 µM | NCI-H460 > 100 µM | SF-268 > 100 µM | MDA-N > 100 µM | KM12 > 100 µM | Malme-3M > 100 µM | TK-10 > 100 µM | PC-3 > 100 µM | U-251 > 100 µM | M14 > 100 µM | SNB-75 > 100 µM | MCF7 58.7 µM | UO-31 > 100 µM | SK-OV-3 > 100 µM | A549 > 100 µM | UACC-257 > 100 µM | A498 46.7 µM | SF-539 > 100 µM | DU-145 > 100 µM

C1COCCOP2(N3CC3)=NP(N3CC3)(=NP(N3CC3)(N3CC3)=N2)OCCOCCO1 (stereo not drawn)
inactive: K562 > 100 µM | SF-268 > 100 µM | MDA-N > 100 µM | KM12 > 100 µM | Malme-3M > 100 µM | TK-10 > 100 µM | PC-3 > 100 µM | U-251 > 100 µM | M14 > 100 µM | SNB-75 > 100 µM | MCF7 > 100 µM | UO-31 > 100 µM | SK-OV-3 > 100 µM | A549 > 100 µM | UACC-257 > 100 µM | A498 > 100 µM | SF-539 > 100 µM | DU-145 37.4 µM

O=c1[nH]c(=O)n(C2OC(CO)C(O)C2O)c2ccsc12 (stereo not drawn)
inactive: K562 > 100 µM | NCI-H460 > 100 µM | SF-268 > 100 µM | SK-MEL-2 > 100 µM | MDA-N > 100 µM | KM12 > 100 µM | Malme-3M > 100 µM | TK-10 > 100 µM | PC-3 > 100 µM | U-251 > 100 µM | M14 > 100 µM | SNB-75 > 100 µM | MCF7 > 100 µM | UO-31 > 100 µM | A549 > 100 µM | UACC-257 > 100 µM | A498 > 100 µM | SF-539 > 100 µM | DU-145 > 100 µM

Oc1nc(S)nc2nc3c4cccnc4c4ccccc4c3nc12
inactive: NCI-H460 57.3 µM | SF-268 > 100 µM | MDA-N > 100 µM | KM12 79.8 µM | Malme-3M > 100 µM | TK-10 > 100 µM | PC-3 > 100 µM | U-251 > 100 µM | M14 > 100 µM | SNB-75 48.4 µM | MCF7 88.3 µM | UO-31 > 100 µM | SK-OV-3 > 100 µM | A549 > 100 µM | UACC-257 > 100 µM | A498 > 100 µM | SF-539 > 100 µM | DU-145 > 100 µM

O=C1C=C(c2ccccc2)O/C1=C/C(=O)c1ccc(Cl)cc1
inactive: K562 8.13 µM | NCI-H460 20.2 µM | SF-268 23.9 µM | MDA-N 16.1 µM | KM12 20.8 µM | Malme-3M 17.2 µM | TK-10 20.2 µM | PC-3 14.2 µM | U-251 15.7 µM | M14 19 µM | SNB-75 10.6 µM | MCF7 16.5 µM | UO-31 23.3 µM | SK-OV-3 36.1 µM | UACC-257 20.7 µM | A498 23.4 µM | SF-539 17.8 µM | DU-145 37.3 µM

CCOC(=O)[C@@]12NN=N[C@@H]1[C@H]1CO[C@H](c3ccccc3)N1C2=O
inactive: NCI-H460 4.44 µM | SF-268 11 µM | SK-MEL-2 7.21 µM | MDA-N 11.1 µM | KM12 13.1 µM | Malme-3M 13.3 µM | TK-10 16.8 µM | PC-3 10.1 µM | U-251 4.54 µM | M14 6.18 µM | MCF7 6.34 µM | SK-OV-3 18.2 µM | A549 16.9 µM | UACC-257 6.44 µM | A498 10.6 µM | SF-539 11.2 µM | DU-145 13.8 µM

Cc1ccc(/N=N/c2cc(=O)[nH]c(=O)[nH]2)cc1C
inactive: K562 2.79 µM | NCI-H460 17.2 µM | SF-268 19.8 µM | MDA-N 12.2 µM | KM12 12.1 µM | Malme-3M 14.4 µM | TK-10 19.4 µM | PC-3 2.71 µM | U-251 15.2 µM | M14 14.2 µM | SNB-75 3.9 µM | MCF7 12.3 µM | UO-31 17.9 µM | A549 18.5 µM | UACC-257 13.7 µM | A498 18.4 µM | SF-539 11.2 µM | DU-145 14.7 µM

Nc1nc(N)c2ncn(CC3CCC(CO)C3)c2n1 (stereo not drawn)
inactive: K562 > 100 µM | SF-268 > 100 µM | SK-MEL-2 > 100 µM | MDA-N > 100 µM | KM12 > 100 µM | TK-10 > 100 µM | PC-3 > 100 µM | U-251 > 100 µM | M14 > 100 µM | SNB-75 > 100 µM | MCF7 > 100 µM | UO-31 > 100 µM | SK-OV-3 > 100 µM | A549 > 100 µM | UACC-257 > 100 µM | A498 > 100 µM | SF-539 > 100 µM | DU-145 > 100 µM
